Values of other authors in US20080004230A1, “SAM Riboswitch and Uses Thereof” (priority 2006, published 2008).
Where two headings read alike, the source gives them in different places. Values belong to the compound of their own block, whether it stands above or below them.

Key:
[1] = target: SAM-I riboswitch RNA (yitJ homolog from B. subtilis); conditions: read-out: binding affinity of the analog for the riboswitch RNA
SAM-I riboswitch = conditions: binding preference of the riboswitch, SAM relative to SAH

- Kd ([1]; analog with one less side chain methylene group): ~30 µM
Compound: Nc1ncnc2c1ncn2[C@@H]1O[C@H](CSC[C@H](N)C(=O)O)[C@@H](O)[C@H]1O [SAC, S-adenosylcysteine]

- Kd [1]: 0.4 µM
Compound: Nc1ncnc2c1ncn2[C@@H]1O[C@H](CSCC[C@H](N)C(=O)O)[C@@H](O)[C@H]1O [SAH, S-adenosylhomocysteine]

Compound: C[S+](CC[C@H](N)C(=O)O)C[C@H]1O[C@@H](n2cnc3c(N)ncnc32)[C@H](O)[C@@H]1O (stereo partly drawn) [SAM, S-adenosylmethionine]
- preference for SAM over SAH (SAM-I riboswitch): 100 fold
